Data reported in patent US20060025380A1, “Formulations for non-parenteral use including hydrophobic cyclodextrins” (deCODE Chemistry Inc, priority 2004, published 2006).

Assay: Solubility of drug in aqueous cyclodextrin complexation media (dissolved drug by HPLC)
Assay type: physicochemical
Description: General procedure: Zero to 40% w/v of various cyclodextrins were dissolved in 0.25% (w/v) PVP polymer, 50 mM MgCl2 solutions with 50 to 150 mM of various amino acids, resulting in an aqueous complexation media. An excess amount of drug was added to the aqueous complexation media, with the suspension formed then sonicated for 60 minutes at 75° C. (some drugs can also be heated at 121° C. for 20 minutes in autoclave). After an equilibrium period, the drug suspensions were filtered and the amount of dissolved drug was determined by HPLC.
To provide further information as to a specific example, production of the third camptothecin formulation (with proline) listed below is described. 20% w/v of randomly methylated β-cyclodextrin was dissolved in 0.25% (w/v) CMC polymer, 50 mM MgCl2 solutions with 50 mM of Proline and 0.02M HCl (buffer). The drug concentration was 0.526±0.009 mg/ml.
To provide further information as to a specific example, production of the first trichlocarban formulation (with lysine) listed below is described. 20% w/v of randomly methlyated β-cyclodextrin was dissolved in 0.25% (w/v) PVP polymer, 50 mM MgCl2 solutions with 50 mM of L-Lysine hydrochloride. The drug concentration was 5.72±0.07 mg/ml.

O=C(Nc1ccc(Cl)cc1)Nc1ccc(Cl)c(Cl)c1 [Trichlocarban, trichlocarban]
Trichlocarban (TCC) solubility, CD + poly: 2.30 ± 0.24 mg/mL | Trichlocarban (TCC) solubility, CD no AA: 2.05 ± 0.15 mg/mL | solubility of TCC with adipic acid: 5.19 ± 0.21 mg/mL | solubility of TCC with poly-lysine: 4.81 ± 0.21 mg/mL

CC[C@@]1(O)C(=O)OCc2c1cc1n(c2=O)Cc2cc3ccccc3nc2-1 [Camptotechin, camptothecin]
Camptotechin (CPT) 20% RMβCD (50 mM Proline, 0.25% (w/v) CMC polymer, 50 mM MgCl2, 0.02M HCl): 0.526 ± 0.009 mg/mL | Camptotechin (CPT) 20% RMβCD (50 mM Proline, 0.25% (w/v) CMC polymer, 50 mM MgCl2, 0.02M HCl, listed as camptothecin): 0.526 ± 0.009 mg/mL | Camptotechin (CPT) 20% RMβCD (Cysteine): 0.334 ± 0.025 mg/mL | Camptotechin (CPT) 20% RMβCD (Lysine): 0.285 ± 0.010 mg/mL | Camptotechin (CPT) 20% RMβCD (No amino acid): 0.228 ± 0.009 mg/mL | Camptotechin (CPT) 20% RMβCD (Tryptophan): 0.375 ± 0.002 mg/mL | Camptotechin (CPT) 40% HPβCD (40% HPβCD (first column so headed, c2), Lysine): 0.493 ± 0.015 mg/mL | Camptotechin (CPT) 40% HPβCD (40% HPβCD (second column so headed, c3), Lysine): 0.439 ± 0.022 mg/mL
